Source: patent publication US20090123940A1, “MOLECULES INVOLVED IN SYNAPTOGENESIS AND USES THEREFOR” (THE JOHNS HOPKINS UNIVERSITY, priority 2007, published 2009)

What was measured:
[1] = tested on: Schaffer collateral-CA1 synapse; test: mGluR1/5-dependent LTD in hippocampal slices (field EPSP recording); type: cell-based, mouse; settings: for fEPSP slope after DHPG-induced LTD: control mouse slices, t=75 min, DHPG 50 μM for 5 min, TAPI-2 50 μM for 20 min starting 15 min before DHPG
Procedure: mGluR1/5-dependent LTD in hippocampus. Hippocampal slices from postnatal day 21 to 28 mice were prepared as previously described (Huber et al., Science 288:1254-[…]). […] Transverse slices (400 μm thick) were cut on a Vibratome 3000 (The Vibratome company). Slices were transferred to a reservoir chamber filled with a normal aCSF which comprised (in mM): 124 mM NaCl, 2.5 mM KCl, 1.3 mM MgCl2, 2.5 mM CaCl2, 1 mM NaH2PO4, 26.2 mM NaHCO3, and 20 D-glucose. Slices were allowed to recover for 2-6 hr at room temperature (22-24° C.). For recording, slices were transferred to an interface type chamber, maintained at 32° C. for 1 hr, and perfused continuously with aCSF at a rate of 2.5 mL/min. Standard methods were used to record field EPSPs (fEPSPs) from the stratum radiatum in response to stimulation of the Schaffer collateral-commissural pathway with a concentric bipolar tungsten electrode (FHC, Bowdoin, Me.). The stimulus intensity was adjusted to elicit 50-60% of the maximal response. Evoked responses were stored on-line and analyzed off-line using Clampfit (Ver. 9.2). […] The strength of the synaptic response was measured as the fEPFP slope. […] LTD was expressed as percentage of the fEPSP slope during the baseline recording. All data shown for the time course are mean±SEM.

[2] = tested on: surface GluR1 / surface LFC-NPR; test: Cell surface biotinylation of cultured cortical neurons; type: cell-based; settings: for surface LFC-NPR: cultured cortical neurons after DHPG treatment
Procedure: Cell Surface Biotinylation. Surface biotinylation of GluR1 at the plasma membrane was described previously (Snyder et al., Nat Neurosci 4:1079-85, 2001) with some modifications. Cultured cortical neurons were treated with DHPG for 5 minutes. Medium was then replaced with previously cultured medium. After 45 minutes, neurons were cooled on ice and washed with cold PBS containing 1 mM CaCl2 and 0.5 mM MgCl2 (PBS++). Cell surface proteins were labeled with cell-impermeable EZ-Link Sulfo-NHS-SS-Biotin (sulfosuccinimidyl-2-(biotinamido)ethyl-1,3-dithiopropionate; Pierce) in PBS^++ (1 mg/mL) at 4° C. for 30 min. Unreacted biotin was quenched by washing cells with cold 100 mM Glycine (pH 7.4). Cultures were lysed using RIPA buffer and homogenates were centrifuged at 13, 200 rpm to remove debris. 10% of the homogenates were used for total protein. 90% of the remaining homogenates were incubated with immobilized NeutrAvidin beads (Pierce). After washing with RIPA buffer, bound proteins were eluted with 2× Laemmli sample buffer supplemented with 2% β-ME. The eluted proteins were subjected to SDS-PAGE and Western blotting followed by ECL (Amersham Biosciences) and exposure to autoradiography film. Primary antibody concentrations were as follows: GluR1N at 0.12 μg/mL and β-actin at 1:1000. Quantification performed on digital images scanned from exposure matched autoradiographs. Densitometric analysis of these digital images was performed using ImageJ software (Version 1.33, National Institutes of Health). Significance was determined by paired Student's T-test.

GluR1 = test: Immunocytochemical staining of surface and internalized GluR1 in cultured hippocampal neurons; type: cell-based
Procedure: Immunocytochemical staining. Immunocytochemical staining of heterologous cells was performed as described (Xu et al., supra). For PMA-stimulation experiments, PMA (Sigma Cat #: P8139) at (150 nM) was added 90 minutes prior to live staining. Images were viewed and captured using Nikon E800 epifluorescence microscope fitted with a Princeton Instruments CCD camera. For live staining, neurons cultured on coverslips were incubated at 10° C. with the appropriate primary antibodies at the indicated dilutions in conditioned culture medium for 20 min. They were then washed with PBS and fixed with 4% paraformaldehyde/4% sucrose in PBS for 20 min at room temperature. Cells were permeablized with 0.2% Triton X-100 in PBS for 5 min and then blocked in 10% normal goat serum in PBS for 1 hr at room temperature. If intracellular proteins were of interest, coverslips were then incubated with antibody diluted in 10% normal goat serum for 1 hr at room temperature or overnight at 4° C. Coverslips were washed with PBS and incubated with secondary antibody conjugated to Alexa488 and Alexa555 (1:500 in 10% normal goat serum, Molecular Probes Eugene, Oreg.). Coverslips were mounted using the Prolong Antifade Kit (Molecular Probes, Eugene, Oreg.). For immunocytochemistry studies, mGluR1/5 were activated using the selective agonist (S)-DHPG (Tocris Cat.# 0805) with mGluR5 allosteric potentiator DFB (Tocris Cat.#1625). Neurons were incubated with DFB (50 μM) for 5 min and then DHPG (50 μM) for an additional 5 min in neuronal incubation medium and then transferred into the original incubation medium. […] Cells were incubated at 37° C. to allow endocytosis. At indicated time points, cells were incubated with N-terminal GluR1 mouse antibody (JH 4093; 0.2 μg/100 μl; kind gift from T. […] (to block endocytosis during staining). Cells were then processed for immunofluorescent staining as described above. An acid strip protocol was employed to measure endocytosed antibody labeled GluR1 (Snyder et al., 2001). Neurons were washed with progressively cooler NIM to slow basal endocytosis. Cells were then live labeled at 10° C. with GluR1 N-terminal antibody (0.2 μg/100 μL JH4094) antibody in NIM for 20 min. After washing unbound excess antibody, cells were incubated sequentially with DFB, DHPG, and original incubation medium at 37° C., as described above. After appropriate incubation times, cells were washed with 4° C. TBS. […] Neurons were then washed with 4° C. TBS followed by processing for immunofluorescent staining as described above. All neurons were viewed and captured using UltraVIEW spinning disk confocal microscope (PerkinElmer Life Sciences, Wellesley, Mass., USA) with a Nikon Eclipse TE 200 microscope and a 63× objective (Nikon, Melville, N.Y.). Images were acquired and saved as Tiff files with a dynamic range of 65536 grey levels (16-bit binary). Image analysis was performed using Metamorph imaging software (Universal Imaging, Downingtown, Pa.). For quantification of the punctate structures (e.g. GluR1), images were thresholded by grey value to differentiate single puncta. Segments of dendrites were selected and number of puncta was calculated per […] of length dendrite. Figures show ratios of calculated mean densities (number of puncta per unit length) from treated/control. Error bars were calculated using SEM and Gaussian error propagation. n=number of measured dendrites. Significance was determined by paired Student's T-test.

[3] = TAPI-2 = pretreatment before DHPG
[4] = cultured cortical neurons, 45 min after DHPG treatment, TAPI-2 = pretreatment before DHPG
[5] = cultured hippocampal neurons DIV 14-17, 45 min after DHPG, TAPI-2 = pretreatment (50 μM) before DHPG
[6] = neurons derived from control mice

| Compound | initial, phasic EPSP depression during DHPG treatment ([1]; TAPI-2 50 μM) | basal fEPSP slope or probability of release as indexed by paired pulse ratio (PPR) ([1]; TAPI-2 50 μM for 20 min) | fEPSP slope after DHPG-induced LTD [1] | PP-1 Hz induced LTD (fEPSP slope) ([1]; control slices pretreated with TAPI-2 50 μM, t=50 min, n=4) | surface LFC-NPR [2, 3] | surface GluR1 [2, 4] | surface GluR1 puncta density (GluR1; [5]) | DHPG-induced LTD (fEPSP slope) ([1]; slices from NP TKO mice, n=9) | DHPG-induced LTD (fEPSP slope) ([1]; slices from NPR KO mice, n=7) | DHPG-induced LTD (fEPSP slope) ([1]; slices from wild-type mice, n=13) | surface GluR1 ([2]; neurons cultured from NP TKO mouse cortex, after DHPG) | surface GluR1 ([2]; neurons cultured from control mouse cortex, 45 min after DHPG) | surface GluR1 puncta density (GluR1; DHPG treated neurons cultured from NP TKO mice) | surface GluR1 puncta density (GluR1; DHPG treated neurons derived from control mice) | internalized GluR1 (acid-strip protocol) (GluR1; [6]) | time to maximal internalized GluR1 after addition of DHPG (GluR1; [6]) | GluR1 internalization (acid-strip protocol) (GluR1; neurons from NP TKO mice) |
| --- | --- | --- | --- | --- | --- | --- | --- | --- | --- | --- | --- | --- | --- | --- | --- | --- | --- |
| CC(C)C[C@H](CC(=O)NO)C(=O)N[C@H](C(=O)N[C@@H](C)C(=O)NCCN)C(C)(C)C [TAPI-2] | no effect | did not alter | 93.8±2.5 % of baseline | 101.8±5.6 % of baseline | 108.9±16.0 % of vehicle control | 102.4±4.9 % of vehicle control | 84.7±12.6 % of vehicle control |  |  |  |  |  |  |  |  |  |  |
| N[C@H](C(=O)O)c1cc(O)cc(O)c1 [DHPG, (S)-3,5-dihydroxyphenylglycine] |  |  | 74.0±3.3 % of baseline |  | 84.3±7.2 % of vehicle control | 74.1±2.2 % of vehicle control | 47.6±8.5 % of vehicle control | 85.9±4.1% | 96.3±2.5% | 68.6±3.7% | 98.4±9.7 % of vehicle control | 46.3±8.3 % of vehicle control | 113.4±6.3 % of vehicle control | 68.5±6.0 % of vehicle control | evoked an increase in internalized GluR1 | ≤ 5 min | did not increase GluR1 internalization |
